Experimental data as given in patent US5573772A, “Methods for protecting tissues and organs from ischemic damage” (priority 1994, dated 1996).

Tested on: rabbit heart
Assay: Infarct size in isolated rabbit hearts, A3-receptor mediation of preconditioning, Example 3
Protocol: New Zealand white rabbits of either sex, between 1.4-2.4 kg, were anesthetized with intravenous sodium pentobarbital (30 mg/kg). The neck was opened and a tracheotomy was performed. The rabbits were ventilated with 100% oxygen via a positive pressure respirator (MD industries, Mobile, Ala.). Ventilation rate was 30-35 breaths per minute, and tidal volume was approximately 15 ml. A left thoracotomy was performed in the fourth intercostal space and pericardium was opened to expose the heart. A 2-0 silk suture with an RB taper needle was passed around a branch of the left coronary artery, and the end of the silk were threaded through a small vinyl tube to form a snare. The heads were quickly excised and mounted on a Langendorff apparatus and perfused at constant pressure with Krebs buffer containing (in mM) 118.5 NaCl, 4.7 KCl, 1.2 MgSO4, 1.2 K2 PO4, 24.3 NaHCO3, 2.5 CaCl2 and 10 glucose. […] The temperature of the perfusate was maintained at 37° C. The perfusion pressure was kept at 75 mm Hg. Pacing electrodes were placed on the right atrium and all hearts were paced at 200 beats/minute with pulses of 5 volts and 4 msec duration to keep the heart rate constant. A fluid-filled latex balloon connected to a transducer via PE240 tubing was inserted into the left ventricle. Balloon volume was adjusted to set the left ventricular diastolic pressure at 10 mm Hg at the beginning of the experiment. Total coronary artery flow was measured by timed collection of buffer from the chamber into a graduated cylinder. Regional ischemia was effected by pulling the snare tight and clamping the tube with a hemostat. Global ischemia was performed by clamping the inflow tubing of the Langendorff apparatus. Reperfusion was achieved by releasing the restriction. All hearts were allowed to equilibrate for 20 minutes before the experiments were started. Heart rate (HR), coronary flow (CF) and left ventricular developed pressure (LVDP) were recorded at the point just before and at the end of each treatment with the pacing momentarily turned off. […] The hearts were removed from the Langendorff apparatus, weighed and then frozen. The hearts were cut into 2 mm transverse slices. The slices were thawed and incubated in 1% triphenyl tetrazolium chloride (TTC) in pH 7.4 buffer for 20 minutes at 37° C. TTC reacts with NADH and dehydrogenase enzymes and stains all tissue still having them to a deep red color. […] After staining, the area of infarcted tissue (TTC negative tissue) and the risk zone (area lacking fluorescence under ultraviolet light) in each slice were traced. The area of infarct and risk zone were determined by planimetry of the tracing. The volume of infarcted myocardium and myocardium at risk was then calculated by multiplying the planimetered areas by the slice thickness. The methods utilized in this example are identical to those described in Example 1. All hearts received 30 minutes of regional ischemia as described in Example 1. The control group (n=8) hearts received only 30 minutes of ischemia. Preconditioned (PC) hearts (n=10) received 5 minutes of global ischemia and 10 minutes of reperfusion prior to the regional ischemia. Adenosine (ADO) treated hearts (n=6) received 10 μM adenosine for 5 minutes prior to regional ischemia. APNEA treated hearts (n=6) received 65 μM APNEA for 5 minutes prior to regional ischemia. In groups receiving the nonselective adenosine blocker, 8-SPT, the blocker was included in the perfusate for 15 minutes at 100 μM starting 5 minutes before the exposure of ADO (ADO-SPT group, n=6), or APNEA (APNEA-SPT group, n=6 ) or 5 minutes before and after 5 minutes of preconditioning ischemia (PC-SPT group, n=5). […] For the PC-BW group (n=5), the A3-receptor antagonist, BW A1433, [Linden J, et al., Molecular Pharmacology 44:524-532 (1993)], was administered at a dose of 200 nM in the perfusate for 5 minutes before and 5 minutes after PC ischemia.

SMILES: Nc1ncnc2c1ncn2[C@@H]1O[C@H](CO)[C@@H](O)[C@H]1O [ADO, Adenosine]
- Infarct size (of the risk area) (ADO 10 μM, 5 minutes, control 32.2±1.5%, PC 8.8±2.3%): 11.4±2.3%

SMILES: Nc1ccc(CCNc2ncnc3c2ncn3[C@@H]2O[C@H](CO)[C@@H](O)[C@H]2O)cc1 [APNEA, N^6-(2-(4-aminophenyl)ethyl) adenosine]
- Infarct size (of the risk area) (APNEA 65 μM (so in the source), 5 minutes, control 32.2±1.5%): 12.6±2.2%

SMILES: CCCn1c(=O)c2[nH]c(C3CCCC3)nc2n(CCC)c1=O [DPCPX, 8-cyclopentyl-1,3-dipropylxanthine]
- Infarct size (of the risk area) (DPCPX 200 nM + ADO): 14.4±2.8%
- Infarct size (of the risk area) (DPCPX 200 nM + APNEA): 8.7±1.7%
- Infarct size (of the risk area) (DPCPX 200 nM + PC): 15.6±7.8%

SMILES: Cn1c(=O)c2[nH]c(-c3ccc(S(=O)(=O)O)cc3)nc2n(C)c1=O [SPT, 8-(p-Sulfophenyl)-theophylline]
- Infarct size (of the risk area) (8-SPT 100 μM + ADO): 29.8±3.7%
- Infarct size (of the risk area) (8-SPT 100 μM + APNEA): 30.3±3.3%
- Infarct size (of the risk area) (8-SPT 100 μM + PC): 33.8±2.7%
